Results taken from PMC7385556 (ACS chemical biology, 2020).
Marks after values point to notes of the source that are not given here.

Tested on: Mtb K204
Type: cell-based, Mycobacterium tuberculosis
Conditions: KAN alone, no inhibitor

SMILES: NC[C@H]1O[C@H](O[C@H]2[C@H](O)[C@@H](O[C@H]3O[C@H](CO)[C@@H](O)[C@H](N)[C@H]3O)[C@H](N)C[C@@H]2N)[C@H](O)[C@@H](O)[C@@H]1O [KAN, kanamycin]
- MICKAN in K204: >10, >10^d μg/mL
